Test results: patent EP4741383A1, “COMPOUND AND USE THEREOF AS ANTI-CANCER DRUG” (Tyligand Bioscience (Shanghai) Limited, priority 2023, dated 2025)

test system: MV4-11; experiment: CellTiter-Glo cell proliferation inhibition, MV4-11; format: cell-based, human; conditions: Homo sapiens; MV4-11 cells, 72 hours, CellTiter-Glo; read-out: IC50 (µM) M V4-11
Source text: (§1) In this study, the CellTiter-Glo® Luminescent Cell Viability Assay kit from Promega was used to evaluate the inhibitory effects of the disclosed compounds on the proliferation of cell lines KYSE520 (a human esophageal squamous cell carcinoma cell line dependent on SHP2 for growth), MeWo (a human malignant melanoma cell line), and MV4-11 (an RTK-mutant human acute monocytic leukemia cell line).
Using essentially the same experimental materials, MV4-11 cells (Nanjing Cobio Biotechnology Co., Ltd., Catalog #CBP60522) were treated similarly: when thawing the cells, the cryovial was rapidly shaken in a 37 °C water bath to thaw within 1 minute. The thawed cell suspension was mixed with IMDM culture medium containing 10% FBS (HyClone, Catalog #SH30228.01), centrifuged at 1000 rpm for 7 minutes, and the supernatant was discarded. The cell pellet was resuspended in 5 mL of complete culture medium (IMDM medium containing 10% FBS) placed in a cell culture flask with 25 cm^2 of bottom area, and cultured in a cell culture incubator at 37 °C, 95% humidity, and 5% CO2. Cell passaging was performed when the cell density reached approximately 10^6 cells/mL. During cell passaging, the old cell suspension was thoroughly mixed, 1/5 of the cell suspension was retained, and 4 mL of new complete culture medium was added. After thorough mixing, the cells were placed back in the cell culture incubator for further culture. Cell plating was performed when the cell density again reached approximately 10^6 cells/mL. During cell plating, following the cell passage method, 1/5 of the cell suspension was retained for continued culture, and the remaining 4/5 of the cell suspension was placed in a 15 mL centrifuge tube. Cell viability was determined using the trypan blue exclusion method to ensure that cell viability was above 90%. A cell suspension with a density of 1.11 × 10^5 viable cells/mL was prepared using complete culture medium. 90 µL of the cell suspension was added to a 96-well cell culture plate, resulting in a cell density of 10000 viable cells/well. A control group without cells and without compounds, containing only complete culture medium (i.e., culture medium control) and a control group without compounds but containing cells (i.e., cell control) were set up. The cell plate was incubated overnight in the cell culture incubator. First, a 10 mM stock solution of the compound (Example compound and positive control compound 11a-1) in DMSO was serially diluted with DMSO at a 3-fold dilution, down to the 9th concentrations. A 10th concentration containing only DMSO (without the compound) was also prepared as a control. Then, the DMSO solutions containing different concentrations of the compound were diluted 100-fold with complete culture medium, resulting in a DMSO concentration of 1% in each solution. Finally, 10 µL of each solution was added to the corresponding wells of a cell culture plate, resulting in an initial compound concentration of 10 µM, with a 3-fold dilution between adjacent concentrations, and a DMSO concentration of 0.1% in the cell culture plate. The cell plate was then incubated in a cell culture incubator for 72 hours.
(§2) For endpoint detection, CellTiter-Glo reagent (Promega, catalog number #G7573, CellTiter-Glo® Luminescent Cell Viability Assay Kit) was melt and each cell plate was moved to room temperature for equilibration for 30 minutes. 75 µL (KYSE520 cells) or 50 µL (MeWo cells and MV 4-11 cells) of CellTiter-Glo was added to each well of the corresponding cell plate. The plates were shaken on a track-mounted shaker for 2 minutes to fully lyse the cells. The cell plates were kept at room temperature for 8 minutes to stabilize the luminescence signal. A multi-mode microplate reader (PerkinEImer, Envision 2105 Multimode plate Read) was used to full-wavelength scan the luminescence value of each well. […]

Structure (SMILES) | IC50
O=C(Nc1ccc(-c2csc(CO)c2)cc1)C(=O)Nc1ccc(-c2cc3cc(F)c(-c4nnn[nH]4)cc3n2C2CCC2)cc1 [Example 1] | 0.097 µM
N#CCc1cc(-c2ccc(NC(=O)C(=O)Nc3ccc(-c4cc5cc(F)c(-c6nnn[nH]6)cc5n4C4CCC4)cc3)cc2)cs1 [Example 2] | 0.216 µM
O=C(Nc1ccc(-c2cc3cc(F)c(-c4nnn[nH]4)cc3n2C2CCC2)cc1)C(=O)Nc1ccc(N2CCC(CO)C2)cc1 (stereo not shown) [Example 12] | 0.262 µM
CC1(O)CCC2(CCN(c3ccc(NC(=O)C(=O)Nc4ccc(-c5cc6cc(F)c(-c7nnn[nH]7)cc6n5C5(C)CCC5)cc4)cc3)CC2)CC1 [Example 111] | 0.122 µM
CC1(n2c(-c3ccc(NC(=O)C(=O)Nc4ccc(N5CCC(CCO)CC5)cc4)cc3)cc3cc(F)c(-c4nnn[nH]4)cc32)CCC1 [Example 26] | 0.129 µM
CC1(CO)CCN(c2ccc(NC(=O)C(=O)Nc3ccc(-c4cc5cc(F)c(-c6nnn[nH]6)cc5n4C4CCC4)cc3)cc2)C1 (stereo not shown) [Example 16] | 0.137 µM
CC(O)C1CCN(c2ccc(NC(=O)C(=O)Nc3ccc(-c4cc5cc(F)c(-c6nnn[nH]6)cc5n4C4CCC4)cc3)cc2)CC1 (stereo not shown) [Example 29] | 0.13 µM
O=C(Nc1ccc(-c2cc3cc(F)c(-c4nnn[nH]4)cc3n2C2CCC2)cc1)C(=O)Nc1ccc(N2CCC(CCO)C2)cc1 (stereo not shown) [Example 14] | 0.155 µM

Further lines, results first:

IC50 | Structure (SMILES)
0.123 µM | O=C(Nc1ccc(-c2cc3cc(F)c(-c4nnn[nH]4)cc3n2C2CCC2)cc1)C(=O)Nc1ccc(N2CCC3(CCC(O)C3)C2)cc1 (stereo not shown) [Example 92]
0.329 µM | CC1(n2c(-c3ccc(NC(=O)C(=O)Nc4ccc(N5CCC6(CCC(O)C6)CC5)cc4)cc3)cc3cc(F)c(-c4nnn[nH]4)cc32)CCC1 (stereo not shown) [Example 101]
0.094 µM | CC1(n2c(-c3ccc(NC(=O)C(=O)Nc4ccc(N5CCC6(CCOCC6)CC5)cc4)cc3)cc3cc(F)c(-c4nnn[nH]4)cc32)CCC1 [Example 77]
0.124 µM | COC1CC(n2c(-c3ccc(NC(=O)C(=O)Nc4ccc(N5CCC6(CCC(O)C6)CC5)cc4)cc3)cc3cc(F)c(-c4nnn[nH]4)cc32)C1 (stereo not shown) [Example 103]
0.127 µM | O=C(Nc1ccc(-c2cc3cc(F)c(-c4nnn[nH]4)cc3n2C2CCC2)cc1)C(=O)Nc1ccc(N2CC3(CCOCC3)C2)cc1 [Example 57]
0.131 µM | CC1(O)CC2CN(c3ccc(NC(=O)C(=O)Nc4ccc(-c5cc6cc(F)c(-c7nnn[nH]7)cc6n5C5(C)CCC5)cc4)cc3)CC2C1 (stereo not shown) [Example 118]
0.213 µM | O=C(Nc1ccc(-c2cc3cc(F)c(-c4nnn[nH]4)cc3n2C2CCC2)cc1)C(=O)Nc1ccc(N2CCC3(COC3)C2)cc1 [Example 59]
0.177 µM | O=C(Nc1ccc(-c2cc3cc(F)c(-c4nnn[nH]4)cc3n2C2CCC2)cc1)C(=O)Nc1ccc(N2CC3(CCCOC3)C2)cc1 [Example 55]
0.202 µM | O=C(Nc1ccc(-c2cc3cc(F)c(-c4nnn[nH]4)cc3n2C2CCC2)cc1)C(=O)Nc1ccc(N2CCC3(CCCOC3)C2)cc1 (stereo not shown) [Example 62]
0.133 µM | CC1(O)CCC2(CC1)CN(c1ccc(NC(=O)C(=O)Nc3ccc(-c4cc5cc(F)c(-c6nnn[nH]6)cc5n4C4CCC4)cc3)cc1)C2 [Example 83]
0.168 µM | CC1(O)CC2(CCN(c3ccc(NC(=O)C(=O)Nc4ccc(-c5cc6cc(F)c(-c7nnn[nH]7)cc6n5C5(C)CCC5)cc4)cc3)CC2)C1 [Example 95]
0.243 µM | CC1(n2c(-c3ccc(NC(=O)C(=O)Nc4ccc(N5CCC6(CCC(O)CC6)CC5)cc4)cc3)cc3cc(F)c(-c4nnn[nH]4)cc32)CCC1 [Example 109]
0.129 µM | O=C(Nc1ccc(-c2cc3cc(F)c(-c4nnn[nH]4)cc3n2C2CCC2)cc1)C(=O)Nc1ccc(N2CCC3(CCCOC3)CC2)cc1 [Example 74]
0.127 µM | CC1(O)CC2CN(c3ccc(NC(=O)C(=O)Nc4ccc(-c5cc6cc(F)c(-c7nnn[nH]7)cc6n5C5CCC5)cc4)cc3)CC2C1 (stereo not shown) [Example 117]

test system: MeWo; experiment: CellTiter-Glo cell proliferation inhibition, MeWo; format: cell-based, human; conditions: Homo sapiens, MeWo, 72 h, MeWo cells, CellTiter-Glo
Method: as §1
Using essentially the same experimental materials, MeWo cells (ATCC, catalog #HTB-65) were treated similarly: when thawing the cells, the cryovial was rapidly shaken in a 37 °C water bath to thaw the cells within 1 minute. The thawed cell suspension was mixed with MEM/EBSS culture medium containing 10% FBS (HyClone, catalog #SH30024.01), centrifuged at 1000 rpm for 5 minutes, and the supernatant was discarded. The cell pellet was resuspended in 5 mL of complete culture medium (MEM/EBSS medium containing 10% FBS), placed in a cell culture flask with 25 cm^2 of bottom area, and cultured in a cell culture incubator at 37 °C, 95% humidity, and 5% CO2. Cell passaging was performed when the cell confluence reached approximately 80%. During cell passaging, the old culture medium was discarded, the cells were washed once with DPBS, and 1 mL of trypsin was added to digest the cells. When the cells dispersed into single cells and detached from the bottom of the cell culture flask, 3 mL of new complete culture medium was added to stop the digestion. After thoroughly mixing the cell suspension, 1/5 of the cell suspension was retained, 5 mL of new complete culture medium was added, and after thorough mixing, the cells were placed in a cell culture flask for further culture. Cell plating was performed when the cell confluence again reached approximately 80%. During cell plating, following the cell passaging method, 1/5 of the cell suspension was retained for further culture, and the remaining 4/5 of the cell suspension was placed in a 15 mL centrifuge tube. Cell viability was determined using the trypan blue exclusion method to ensure that cell viability was above 90%. A cell suspension with a density of 2.22 × 10^4 cells/mL was prepared using MEM/EBSS culture medium containing 5% FBS. 90 µL of the cell suspension was added to a 96-well cell culture plate, resulting in a cell density of 2000 viable cells/well in the cell culture plate. A control group without cells and without compounds, containing only complete culture medium (i.e., culture medium control), and a control group without compounds but containing cells (i.e., cell control) were set up. The cell plate was cultured overnight in the cell culture incubator. First, a 10 mM stock solution of the compound (Example compound and positive control compound 11a-1) in DMSO was serially diluted with DMSO at a 3-fold dilution, down to the 9th concentration. A 10th concentration containing only DMSO (without the compound) was also prepared as a control. Then, the DMSO solutions containing different concentrations of the compound were diluted 100-fold with complete culture medium, resulting in a 1% DMSO concentration in each solution. Finally, 10 µL of each solution was added to the corresponding wells of the cell culture plate, resulting in a starting compound concentration of 10 µM, with a 3-fold dilution between adjacent concentrations, and a 0.1% DMSO concentration in the cell culture plate. The cell plates were then incubated in a cell culture incubator for 72 hours.
as §2, with “signal.” for “signal. A multi-mode microplate reader (PerkinEImer, Envision 2105 Multimode plate Read) was used to full-wavelength scan the luminescence value of each well.”

Structure (SMILES) | IC50
O=C(Nc1ccc(-c2cc3cc(F)c(-c4nnn[nH]4)cc3n2C2CCC2)cc1)C(=O)Nc1ccc(N2CCC3(CCC(O)C3)C2)cc1 (stereo not shown) [Example 92] | 0.098 µM
CC1(n2c(-c3ccc(NC(=O)C(=O)Nc4ccc(N5CCC6(CCOCC6)CC5)cc4)cc3)cc3cc(F)c(-c4nnn[nH]4)cc32)CCC1 [Example 77] | 0.034 µM
O=C(Nc1ccc(-c2csc(CO)c2)cc1)C(=O)Nc1ccc(-c2cc3cc(F)c(-c4nnn[nH]4)cc3n2C2CCC2)cc1 [Example 1] | 0.032 µM
O=C(Nc1ccc(-c2cc3cc(F)c(-c4nnn[nH]4)cc3n2C2CCC2)cc1)C(=O)Nc1ccc(N2CC3(CCOCC3)C2)cc1 [Example 57] | 0.096 µM
O=C(Nc1ccc(-c2ccsc2)cc1)C(=O)Nc1ccc(-c2cc3cc(F)c(-c4nnn[nH]4)nc3n2C2CCC2)cc1 [Example 132] | 0.291 µM
O=C(Nc1ccc(-c2cc3cc(F)c(-c4nnn[nH]4)cc3n2C2CCC2)cc1)C(=O)Nc1ccc(N2CCC(CO)C2)cc1 (stereo not shown) [Example 12] | 0.082 µM
Cn1cc(-c2ccc(NC(=O)C(=O)Nc3ccc(-c4cc5cc(F)c(-c6noc(=O)[nH]6)cc5n4C4CCC4)cc3)cc2)cn1 [Example 123] | 0.118 µM
O=C(Nc1ccc(-c2ccsc2)cc1)C(=O)Nc1ccc(-c2oc3cc(F)c(-c4nnn[nH]4)cc3c2C2CCC2)cc1 [Example 130] | 0.162 µM
O=C(Nc1ccc(-c2ccsc2)cc1)C(=O)Nc1ccc(-c2cc3ccc(-c4nnn[nH]4)cc3n2C2CCC2)cc1 [Example 122] | 0.409 µM
O=C(Nc1ccc(-c2cc3cc(F)c(-c4nnn[nH]4)cc3n2C2CC2)cc1)C(=O)Nc1ccc(N2CCC3(CCOC3)CC2)cc1 [Example 69] | 0.093 µM
O=C(Nc1ccc(-c2ccsc2)cc1)C(=O)Nc1ccc(-c2sc3cc(F)c(-c4nnn[nH]4)cc3c2C2CCC2)cc1 [Example 133] | 0.686 µM
Cn1cc(-c2ccc(NC(=O)C(=O)Nc3ccc(-c4cc5cc(F)c(-c6nnc(C(F)(F)F)[nH]6)cc5n4C4CCC4)cc3)cc2)cn1 [Example 124] | 1.55 µM

same assay, conditions: Homo sapiens; MeWo cells, 72 hours, CellTiter-Glo

Structure (SMILES) | IC50
O=C(Nc1ccc(-c2ccsc2)cc1)C(=O)Nc1ccc(-c2cc3cc(F)c(-c4nnn[nH]4)c(F)c3n2C2CCC2)cc1 [Example 134] | 0.27 µM
O=C(Nc1ccc(-c2ccsc2)cc1)C(=O)Nc1ccc(-c2cc3ccc(-c4nnn[nH]4)nc3n2C2CCC2)cc1 [Example 129] | 0.176 µM
O=C(Nc1ccc(-c2oc3cc(F)c(-c4nnn[nH]4)cc3c2C2CCC2)cc1)C(=O)Nc1ccc(N2CCC3(CCOC3)CC2)cc1 [Example 125] | 0.764 µM
